In ChEMBL document CHEMBL1151696 (Bioorg Med Chem, 2008) one finds Activity data, which are given here for 31 compounds.

Calls of active or inactive are those of the source. No cut-off for these calls is given here.

The subject of this assay is Vaccinia virus. It counts as functional, organism-based. As to conditions: Orthopoxvirus vaccinia.
In the case of `CNC12CC3CC(CC1C3)C2`, the result was inactive.
To `CC(N)C12CC3(C)CC1CC3(C)C2` (stereo unspecified) belongs “inactive”; to `CNCC12CC3(C)CC1CC3(C)C2`, “inactive”; to `COc1ccc(CNC23CC4CC(CC2C4)C3)cc1`, “inactive”.
For `CN(C)C12CC3CC(CC1C3)C2` the value was “inactive”; for `CN(C)C12CC3(C)CC1CC3(C)C2`, “inactive”.
As for `CC12CC3CC1(C)CC3(NCc1ccccc1)C2`, the result was inactive.
Consider `COc1cccc(CNC23CC4CC(CC2C4)C3)c1`, for which the result was inactive.
For the compound `CN(C)CC12CC3(C)CC1CC3(C)C2`, the outcome was inactive.
As for `CC12CC3CC1(C)CC3(NCc1cccs1)C2`, the outcome was inactive.
To `CC12CC3CC1(C)CC3(N(Cc1ccccc1)Cc1ccccc1)C2` belongs “inactive”; to `Fc1ccc(CNC23CC4CC(CC2C4)C3)cc1`, “inactive”; to `CC12CC3CC1(C)CC3(CN)C2`, “inactive”.
On to `CNC12CC3(C)CC1CC3(C)C2`, for which the outcome was inactive.
To `c1ccc(CNCC23CC4CC(CC2C4)C3)cc1` belongs “inactive”; to `CC12CC3CC1(C)CC3(CNC(=N)N)C2`, “inactive”.
To `c1csc(CNC23CC4CC(CC2C4)C3)c1` belongs “inactive”; to `CN(Cc1ccccc1)C12CC3(C)CC1CC3(C)C2`, “inactive”.
To `CN(Cc1ccccc1)C12CC3CC(CC1C3)C2` belongs “inactive”; to `COc1ccccc1CNC12CC3CC(CC1C3)C2`, “inactive”; to `CN(Cc1ccccc1)CC12CC3CC(CC1C3)C2`, “inactive”.
Regarding `N=C(N)NCC12CC3CC(CC1C3)C2`, the outcome was inactive.
To `c1ccc(CNC23CC4CC(CC2C4)C3)cc1` belongs “inactive”; to `C1CCN(C23CC4CC(CC2C4)C3)CC1`, “inactive”.
To `CNCC12CC3CC(CC1C3)C2` belongs “inactive”; to `CC12CC3CC1(C)CC3(CN1CCCCC1)C2`, “inactive”.
To `CC12CC3CC1(C)CC3(CNCc1ccccc1)C2` belongs “inactive”; to `CN(C)CC12CC3CC(CC1C3)C2`, “inactive”.
For the compound `CC12CC3CC1(C)CC3(N)C2`, the outcome was inactive.
For the compound `CN(Cc1ccccc1)CC12CC3(C)CC1CC3(C)C2`, the outcome was inactive.
To `NCC12CC3CC(CC1C3)C2` belongs “inactive”.
